Results as given in publication PMC9962735, “Synthesis and Cytotoxic Activity of the Derivatives of N-(Purin-6-yl)aminopolymethylene Carboxylic Acids and Related Compounds” (Molecules, 2023).

Legend:
MDA-MB-231 cells = assay: Cell cycle analysis by flow cytometry (propidium iodide), MDA-MB-231; type: cell-based, human; conditions: 24 h; for Cell proliferation index (%) / Number of cells (%) in cell cycle phase G0/G1 / Number of cells (%) in cell cycle phase G2M / Number of cells (%) in cell cycle phase S: M ± SD (n = 3)
Description: To study the potential cytostatic effect of compound 1d, we chose the method of cell cycle analysis using flow cytometry by DNA staining with propidium iodide.
To analyze possible effects on the cell cycle, we tested three concentrations of compound 1d, which were close to CC50 calculated on the basis of viability assessment data (MTT assay).
Cell cycle analysis was performed by flow cytometry by staining DNA with propidium iodide (PI). For this, cells were seeded into 6-well plates: 2 × 10^5 COLO201 cells per well and 1.2 × 10^5 MDA-MB-231 cells per well. […] The final concentration of DMSO in the culture medium was 0.1%; an equivalent volume was added to the control cells. The plates were incubated for 24 h in a CO2 incubator. Then, cells were detached from the plastic surface using TrypLE, washed with PBS, and fixed with 70% ethanol. Next, the cells were incubated for 1 h in the dark at 4 °C, then sedimented by centrifugation at 184× g for 10 min, and washed twice with PBS. PBS (0.3 mL) containing 0.1% Triton X-100, 1 µg/mL PI, and 0.2 mg/mL RNAse A was added to the pellet, incubated for 30 min at room temperature in the dark, and analyzed on a CytoFlex flow cytometer (Beckman Coulter, Brea, CA, USA).
The cell population in the test sample was found and gated on forward versus side scatter (FSC-A vs. SSC-A). Next, doublets were discriminated and removed via PI signal height versus PI signal area (PI-H vs. PI-A). For cell cycle phases analysis, PI-A was plotted against number of events (number of cells) (PI-A vs. Count).
The flow cytometry data were processed using the Kaluza Analysis 2.1 software (Beckman Coulter, Brea, CA, USA). Percentages of cell populations distributed in the various phases of the cell cycle (sub-G1, G0/G1, S, and G2M) were calculated. The result was considered significant if the coefficient of variation (CV) was less than 6.

[1] = test system: HepG2 human hepatocellular carcinoma; assay: MTT cytotoxicity assay, HepG2; type: cell-based; conditions: Homo sapiens; for viability at 100 µM: HepG2, 1 × 10^–4 M, mean ± SD (n = 3), read-out: Cell viability; for CC50: HepG2, 72 h incubation, MTT, n = 3
From the text: (§1) The cytotoxicity of the test compounds was studied using the MTT assay against a number of cell lines: CT-26 murine colon carcinoma, 4T1 murine mammary carcinoma, MDA-MB-231 human breast adenocarcinoma, COLO201 human colorectal adenocarcinoma, HepG2 human hepatocellular carcinoma, A549 human non-small-cell lung carcinoma, SK-BR-3 human breast adenocarcinoma, SNU-1 human gastric carcinoma, Jurkat human acute T-lymphoblastic leukemia, and WI-38 human lung fibroblasts (normal cells). Doxorubicin (Dox) was used as a reference drug. Cells were incubated with test compounds for 72 h.
(§2) Cells were seeded in flat-bottomed 96-well plates at 10,000 cells per well (for A549, SNU-1, WI-38, CT-26, MDA-MB-231, 4T1, and HepG2 cells) or 20,000 cells per well (for SK-BR-3, Jurkat, and COLO201 cells) and cultivated in complete culture mediums (for composition of each medium, see the Supplementary Materials, Table S1) in a CO2 incubator at 37 °C. At the first stage of this study, the test compounds dissolved in DMSO were added to the wells with cells at final concentrations from 1 × 10^–4 to 1 × 10^–10 mol/L (A549, SK-BR-3, SNU-1, Jurkat, and WI-38) or 1 × 10^–3 to 1 × 10^–8 mol/L (CT-26, MDA-MB-231, 4T1, COLO201, and HepG2); DMSO concentration in the wells was finally 1%. A complete cultural medium and DMSO were added to the control wells at the same concentration as in the experimental wells; 0.1% Triton X-100 solution (10 µL) was added to the corresponding wells as a non-specific positive control. After adding the test compounds, the cells were incubated for 72 h in an atmosphere containing 5% CO2. After that, the nutrient medium was removed from each well (in the case of SK-BR-3, Jurkat, and COLO201, plates were pre-centrifuged at 1500 rpm for 6 min). A solution of the commercial anticancer agent Doxorubicin (Dox, Sigma-Aldrich, St. Louis, MO, USA) in DMSO was used as a reference drug. Then, 150 µL of a complete medium with the MTT reagent (PanEco, Moscow, Russia) at a concentration of 0.5 mg/mL was added and incubated for 2 h. Formazan crystals were dissolved in DMSO (200 µL) and the absorbance in the wells was measured at 540 nm and a reference wavelength of 650 nm (Sunrise, Tecan, Groding, Austria). Experiments were performed in three parallel runs. Cell viability after incubation in the presence of test compounds was calculated in relation to cell viability in the control wells according to the Formula (1):Cell viability (%) = (Aexp/Ac) × 100,(1) where Aexp is the optical density of solutions in the wells containing test compounds; Ac is the optical density of solutions in control wells without test compounds. For detailed information on cell viability of various cell lines, see the Supplementary Materials, Figures S21–S26.
(§3) At the second stage of this study, in order to more accurately calculate the CC50 (the half maximal inhibitory concentration), the cytotoxic effect of test compounds was evaluated at concentrations close to CC50 found at the first stage. The study of the cytotoxic activity of each substance towards the cells of each line was carried out in triplicate; the mean value was used to calculate CC50. The CC50 values were determined by non-linear regression analysis using Graph-Pad Prism7.

[2] = MTT cytotoxicity assay, HepG2; type: cell-based, human; conditions: human; CC50 of WI-38 divided by CC50 of HepG2; read-out: SCI (selective cytotoxicity index)
From the text: as §1, §2, §3

[3] = MTT cytotoxicity assay, WI-38 normal cells; type: cell-based; conditions: human, WI-38 lung fibroblasts (normal cells); for CC50 at 72 h: WI-38, 72 h incubation, MTT; for viability at 72 h: WI-38, 1 × 10^–4 M, mean ± SD (n = 3), read-out: Cell viability
From the text: as §1, §2, §3

[4] = MTT cytotoxicity assay, A549; type: cell-based, human; conditions: human, read-out: SCI (selective cytotoxicity index)
From the text: as §1, §2, §3

[5] = test system: A549 human non-small-cell lung carcinoma; assay: MTT cytotoxicity assay, A549; type: cell-based; conditions: Homo sapiens; for CC50: A549, 72 h, A549, 72 h incubation, MTT; for viability at 100 µM: A549, 1 × 10^–4 M, mean ± SD (n = 3)
From the text: as §1, §2, §3

[6] = CC50 of WI-38 divided by CC50 of A549 (Table 1)

Row | Compound | viability at 100 µM [1] [%] | CC50 [1] [µM] | selectivity ratio at 72 h [2] | CC50 at 72 h ([3]; n = 3) [µM] | viability at 72 h [3] [%] | selectivity ratio at 72 h [4, 6] | CC50 ([5]; n = 3 (Table 1)) [µM] | viability at 100 µM [5] [%] | also measured
1 | CC1COc2c(ccc(F)c2F)N1C(=O)CCCCCCCCCCNc1ncnc2[nH]cnc12 (centres unmarked) [Compound 1d] | 2 ± 1 | 8.5 | 2.5 | 21 | 21 ± 7 | 0.49 | 43 | 6 ± 1 | Cell proliferation index (%) (MDA-MB-231 cells; MDA-MB-231, 10×10–6 M): 39.08%; Number of cells (%) in cell cycle phase G0/G1 (MDA-MB-231 cells; MDA-MB-231, 10×10–6 M): 60.92%; Number of cells (%) in cell cycle phase G2M (MDA-MB-231 cells; MDA-MB-231, 10×10–6 M): 13.74%; Number of cells (%) in cell cycle phase S (MDA-MB-231 cells; MDA-MB-231, 10×10–6 M): 25.33%; Cell proliferation index (%) (MDA-MB-231 cells; MDA-MB-231, 20×10–6 M): 37.57%; Number of cells (%) in cell cycle phase G0/G1 (MDA-MB-231 cells; MDA-MB-231, 20×10–6 M): 62.13%; Number of cells (%) in cell cycle phase G2M (MDA-MB-231 cells; MDA-MB-231, 20×10–6 M): 17.05%; Number of cells (%) in cell cycle phase S (MDA-MB-231 cells; MDA-MB-231, 20×10–6 M): 20.52%; Cell proliferation index (%) (MDA-MB-231 cells; MDA-MB-231, 30×10–6 M): 40.63%; Number of cells (%) in cell cycle phase G0/G1 (MDA-MB-231 cells; MDA-MB-231, 30×10–6 M): 59.37%; Number of cells (%) in cell cycle phase G2M (MDA-MB-231 cells; MDA-MB-231, 30×10–6 M): 27.49%; Number of cells (%) in cell cycle phase S (MDA-MB-231 cells; MDA-MB-231, 30×10–6 M): 13.13%; cell cycle arrest phase (MDA-MB-231 cells; MDA-MB-231, entire range of concentrations studied): arrest of the cell cycle in the G0/G1 phase; CC50 at 72 h ([3]; n = 3 (Table 3)): 21 µM; selectivity ratio at 72 h ([4]; CC50 of WI-38 divided by CC50 of A549 (Table 3)): 1; CC50 ([5]; n = 3 (Table 3)): 21 µM
2 | CC1COc2c(ccc(F)c2F)N1C(=O)CCCCCCCNc1ncnc2[nH]cnc12 (centres unmarked) [Compound 1c] | 2 ± 1 | 8.5 | 5.9 | 50 | 21 ± 3 | 1.2 | 43 | 7 ± 1 | –
